Test results from ChEMBL document CHEMBL3351435, “New pyrrole derivatives with potent tubulin polymerization inhibiting activity as anticancer agents including hedgehog-dependent cancer” (J Med Chem, 2014).
Calls of active or inactive are those of the source. No cut-off for these calls is given here.

Key:
Mus musculus [1] = assay: Clast in CD-1 mouse at 5 mg/kg, iv; assay type: ADME, organism-based; design: dose 5 mg/kg, route intravenous; conditions: in vivo
CYP2C9 = CYP2C9 (Homo sapiens, UniProt P11712); assay: Inhibition of human CYP2C9 using sulfaphenazole as substrate at 1 uM; assay type: ADME; conditions: probe sulfaphenazole
Sequence of CYP2C9 (P11712 whole entry): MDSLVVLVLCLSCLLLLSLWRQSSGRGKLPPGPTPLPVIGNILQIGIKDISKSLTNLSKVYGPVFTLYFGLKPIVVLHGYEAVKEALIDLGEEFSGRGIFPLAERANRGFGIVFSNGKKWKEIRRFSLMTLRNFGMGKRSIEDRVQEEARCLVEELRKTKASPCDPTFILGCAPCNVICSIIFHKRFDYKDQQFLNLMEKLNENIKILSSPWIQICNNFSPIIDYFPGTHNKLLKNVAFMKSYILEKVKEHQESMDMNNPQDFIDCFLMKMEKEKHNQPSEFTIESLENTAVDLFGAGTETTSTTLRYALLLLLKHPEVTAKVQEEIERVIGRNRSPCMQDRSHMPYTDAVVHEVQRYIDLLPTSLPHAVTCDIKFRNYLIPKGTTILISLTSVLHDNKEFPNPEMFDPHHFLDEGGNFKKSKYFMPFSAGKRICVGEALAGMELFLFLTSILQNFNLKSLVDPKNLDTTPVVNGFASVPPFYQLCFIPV

K562 [2] = assay: Cell cycle arrest in human K562 cells assessed as mitotic index at 10 times IC50 (reference value: […] +/- […]%); assay type: functional
[3] = Cytotoxicity against human MESSA/DX5 cells assessed as growth inhibition after 72 hrs by CellTitre-Glo assay; assay type: functional, cell-based; conditions: MES-SA/Dx5, 72 h
Mus musculus [4] = assay: Tlast in CD-1 mouse at 15 mg/kg, po; assay type: ADME, organism-based; design: dose 15 mg/kg, route oral; conditions: in vivo
HeLa [5] = assay: Cell cycle arrest in human HeLa cells assessed as accumulation at G2/M phase at 20 nM by propidium iodide staining-based flow cytometry; assay type: functional
HeLa [6] = assay: Cell cycle arrest in human HeLa cells assessed as mitotic rounded-up phenotype at 100 nM by light microscopy; assay type: functional, cell-based
[7] = Inhibition of hedgehog signaling in mouse NIH/3T3 Shh-Light II cells after 48 hrs by luciferase reporter gene assay; assay type: functional, cell-based
[8] = AUC infinity in CD-1 mouse at 5 mg/kg, iv; assay type: ADME, organism-based; design: time infinity, dose 5 mg/kg, route intravenous; conditions: plasma
HeLa [9] = assay: Induction of apoptosis in human HeLa cells assessed as blockage of mitotic progression at 100 nM by annexin V staining-based immunofluorescence microscopy; assay type: functional, cell-based
HT-29 = assay: Cytotoxicity against human HT-29 cells assessed as growth inhibition after 48 hrs by MTT method; assay type: functional, cell-based; conditions: HT-29, 48 h
[10] = Cmax in CD-1 mouse at 5 mg/kg, iv; assay type: ADME, organism-based; design: dose 5 mg/kg, route intravenous; conditions: in vivo
HeLa [11] = assay: Induction of apoptosis in human HeLa cells assessed as blockage of mitotic progression at 20 to 100 nM by annexin V staining-based immunofluorescence microscopy; assay type: functional, cell-based
[12] = Mean residence time in CD-1 mouse at 15 mg/kg, po; assay type: ADME, organism-based; design: dose 15 mg/kg, route oral; conditions: in vivo
RD [13] = assay: Cell cycle arrest in human RD cells assessed as rounded cells at 500 nM after 24 hrs by propidium iodide staining-based flow cytometry; assay type: functional
HepG2 [14] = assay: Cell cycle arrest in human HepG2 cells at 500 to 2000 nM incubated for 24 hrs followed by compound washout measured after 24 hrs; assay type: functional, cell-based
[15] = Cytotoxicity against human PC3 cells assessed as growth inhibition after 48 hrs by MTT method; assay type: functional, cell-based; conditions: PC-3, 48 h
[16] = Clearance in CD-1 mouse at 5 mg/kg, iv; assay type: ADME, organism-based; design: dose 5 mg/kg, route intravenous; conditions: in vivo
[17] = Volume of distribution at steady state in CD-1 mouse at 5 mg/kg, iv; assay type: ADME, organism-based; design: dose 5 mg/kg, route intravenous; conditions: in vivo, read-out: Vdss
HeLa [18] = assay: Cell cycle arrest in human HeLa cells assessed as mitotic rounded-up phenotype at 20 nM by light microscopy; assay type: functional, cell-based
NCI/ADR-RES = assay: Cytotoxicity against human NCI/ADR-RES cells assessed as growth inhibition after 96 hrs by Giemsa staining-based light microscopy; assay type: functional, cell-based
[19] = Cytotoxicity against human D283 cells; assay type: functional, cell-based
HeLa [20] = assay: Induction of apoptosis in human HeLa cells assessed as failure of MT elongation at 20 nM by immunofluorescence analysis; assay type: functional, cell-based
RD [21] = assay: Cytotoxicity against human RD cells assessed as growth inhibition after 48 hrs by MTT method; assay type: functional, cell-based
Mus musculus [22] = assay: Tlast in CD-1 mouse at 5 mg/kg, iv; assay type: ADME, organism-based; design: dose 5 mg/kg, route intravenous; conditions: in vivo
CYP2D6 = CYP2D6 (Homo sapiens, UniProt P10635); assay: Inhibition of human CYP2D6 using quinidine as substrate at 1 uM; assay type: ADME; conditions: probe quinidine
Sequence of CYP2D6 (P10635 whole entry): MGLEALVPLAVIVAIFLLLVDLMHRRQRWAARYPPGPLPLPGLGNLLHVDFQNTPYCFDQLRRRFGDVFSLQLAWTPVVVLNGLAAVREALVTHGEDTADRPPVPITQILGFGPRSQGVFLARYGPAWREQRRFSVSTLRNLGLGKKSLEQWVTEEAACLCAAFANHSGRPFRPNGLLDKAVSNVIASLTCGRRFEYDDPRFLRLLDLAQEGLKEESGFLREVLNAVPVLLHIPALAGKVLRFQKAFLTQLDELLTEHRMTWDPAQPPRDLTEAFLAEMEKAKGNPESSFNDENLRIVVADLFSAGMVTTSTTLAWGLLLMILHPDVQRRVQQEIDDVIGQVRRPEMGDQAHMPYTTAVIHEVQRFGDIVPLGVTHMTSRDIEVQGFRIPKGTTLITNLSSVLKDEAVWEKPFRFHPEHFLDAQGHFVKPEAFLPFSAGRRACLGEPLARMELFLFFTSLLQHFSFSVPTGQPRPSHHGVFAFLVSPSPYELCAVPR

[23] = Elimination half life in CD-1 mouse at 5 mg/kg, iv; assay type: ADME, organism-based; design: dose 5 mg/kg, route intravenous; conditions: in vivo, read-out: beta t1/2
[24] = Tmax in CD-1 mouse at 15 mg/kg, po; assay type: ADME, organism-based; design: dose 15 mg/kg, route oral; conditions: in vivo
RD [25] = assay: Cell cycle arrest in human RD cells at 500 nM incubated for 24 hrs followed by compound washout measured after 24 hrs; assay type: functional, cell-based
HeLa [26] = assay: Cell cycle arrest in human HeLa cells assessed as accumulation at G2/M phase at 100 nM by propidium iodide staining-based flow cytometry; assay type: functional
[27] = Elimination half life in CD-1 mouse at 15 mg/kg, po; assay type: ADME, organism-based; design: dose 15 mg/kg, route oral; conditions: in vivo, read-out: beta t1/2
A549 = assay: Cytotoxicity against human A549 cells assessed as growth inhibition after 48 hrs by MTT method; assay type: functional, cell-based; conditions: A549, 48 h
HepG2 [28] = assay: Cytotoxicity against human HepG2 cells assessed as growth inhibition after 48 hrs by MTT method; assay type: functional, cell-based; conditions: HepG2, 48 h
K562 [29] = assay: Cytotoxicity against human K562 cells assessed as growth inhibition after 96 hrs by Giemsa staining-based light microscopy; assay type: functional, cell-based; conditions: K562, 96 h
HeLa [30] = assay: Cell cycle arrest in human HeLa cells by propidium iodide staining-based flow cytometry; assay type: functional
HepG2 [31] = assay: Induction of apoptosis in human HepG2 cells at 500 to 2000 nM after 48 hrs by annexin-V/propidium iodide staining-based flow cytometry; assay type: functional, cell-based
HepG2 [32] = assay: Cell cycle arrest in human HepG2 cells assessed as accumulation at G2/M phase at 500 nM after 24 hrs by propidium iodide staining-based flow cytometry; assay type: functional
Mus musculus [33] = assay: AUC (0 to 480 mins) in CD-1 mouse at 15 mg/kg, po; assay type: ADME, organism-based, Plasma; design: time < 8 hr, dose 15 mg/kg, route oral; conditions: in vivo, 8 h
CYP2C19 = CYP2C19 (Homo sapiens, UniProt P33261); assay: Inhibition of human CYP2C19 using tranylcypromine as substrate at 1 uM; assay type: ADME; conditions: probe tranylcypromine
Sequence of CYP2C19 (P33261 whole entry): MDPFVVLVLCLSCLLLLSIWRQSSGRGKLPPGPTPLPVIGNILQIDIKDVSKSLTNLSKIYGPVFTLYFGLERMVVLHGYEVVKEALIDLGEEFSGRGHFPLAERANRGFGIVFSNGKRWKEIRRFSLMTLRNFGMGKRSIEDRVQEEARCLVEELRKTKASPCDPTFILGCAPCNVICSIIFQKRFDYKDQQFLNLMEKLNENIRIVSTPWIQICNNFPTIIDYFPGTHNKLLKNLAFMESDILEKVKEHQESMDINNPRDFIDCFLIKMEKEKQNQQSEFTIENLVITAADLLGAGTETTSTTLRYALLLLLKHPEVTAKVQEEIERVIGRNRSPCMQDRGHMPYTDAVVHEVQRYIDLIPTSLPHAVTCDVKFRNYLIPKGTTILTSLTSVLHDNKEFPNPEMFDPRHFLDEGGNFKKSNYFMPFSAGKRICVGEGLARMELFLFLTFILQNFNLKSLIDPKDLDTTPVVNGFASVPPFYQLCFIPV

[34] = Cell cycle arrest in human PC3 cells assessed as accumulation at G2/M phase at 500 nM after 24 hrs by propidium iodide staining-based flow cytometry; assay type: functional; conditions: PC-3
[35] = Initial plasma concentration in CD-1 mouse at 5 mg/kg, iv; assay type: ADME, organism-based; design: dose 5 mg/kg, route intravenous
HeLa [36] = assay: Cell cycle arrest in human HeLa cells assessed as reduction in mitotic slippage at 100 nM by annexin V staining-based immunofluorescence microscopy; assay type: functional
HeLa [37] = assay: Cytotoxicity against human HeLa cells assessed as growth inhibition after 48 hrs by MTT method; assay type: functional, cell-based
MCF7 = assay: Cytotoxicity against human MCF7 cells after 96 hrs by Giemsa staining-based light microscopy; assay type: functional, cell-based; conditions: MCF7, 96 h
[38] = Cell cycle arrest in human PC3 cells assessed as rounded cells at 500 nM after 24 hrs by propidium iodide staining-based flow cytometry; assay type: functional; conditions: PC-3
Tubulin (Homo sapiens) = Tubulin (Homo sapiens) (UniProt P68371+Q9H4B7+P0DPH7+P68366+Q13509+Q71U36+P04350+Q3ZCM7+P07437+P68363+Q9BQE3+Q6PEY2+Q13885+Q9BVA1+Q9BUF5); assay: Displacement of [3H]colchicine from tubulin (unknown origin) at 5 uM after 10 mins; assay type: protein-complex assay
cells = conditions: Homo sapiens, OVCAR-8, 96 h
Description: Cytotoxicity against human OVCAR8 cells assessed as growth inhibition after 96 hrs by Giemsa staining-based light microscopy

[39] = Cytotoxicity against human MESSA cells assessed as growth inhibition after 72 hrs by CellTitre-Glo assay; assay type: functional, cell-based; conditions: MES-SA
[40] = AUC infinity in CD-1 mouse at 15 mg/kg, po; assay type: ADME, organism-based; design: time infinity, dose 15 mg/kg, route oral; conditions: plasma
RD [41] = assay: Induction of apoptosis in human RD cells at 500 to 2000 nM after 48 hrs by annexin-V/propidium iodide staining-based flow cytometry; assay type: functional, cell-based

Compound: COc1cc(C(=O)c2ccn(-c3cccc(N)c3)c2)cc(OC)c1OC
- Clast (Mus musculus [1]): 2.3 ng/mL
- inhibition at 1 µM (CYP2C9): 28.9%
- Activity (K562 [2]): 60%
- IC50 [3]: 4.6 nM
- Tlast (Mus musculus [4]): 480 min
- Activity (HeLa [5]): Active
- Activity (HeLa [6]): Active
- IC50 [7]: 676 nM
- inhibition [7]: Dose-dependent effect
- AUC(0-inf) [8]: 1030 ng·h/mL
- Activity (HeLa [9]): Active
- IC50 (HT-29): 60 nM
- Cmax [10]: 3400 ng/mL
- Activity (HeLa [11]): Active
- MRT [12]: 2.42 h
- Activity (RD [13]): Active
- Activity (HepG2 [14]): inactive
- IC50 [15]: 9.8 nM
- clearance [16]: 80.8 mL/min/kg
- Vd [17]: 2.7 L/kg
- Activity (HeLa [18]): Active
- IC50 (NCI/ADR-RES): 1 nM
- IC50 [19]: 580 nM
- Activity (HeLa [20]): Active
- IC50 (RD [21]): 95.3 nM
- Tlast (Mus musculus [22]): 480 min
- inhibition at 1 µM (CYP2D6): < 5%
- half-life [23]: 1.23 h
- Tmax [24]: 5 min
- Activity (RD [25]): Active
- Activity (HeLa [26]): Active
- half-life [27]: 2.98 h
- IC50 (A549): 10 nM
- IC50 (HepG2 [28]): 274 nM
- IC50 (K562 [29]): 20 nM
- Activity (HeLa [30]): Dose-dependent effect
- Activity (HepG2 [31]): Active
- Activity (HepG2 [32]): Active
- AUC (Mus musculus [33]): 79441 ng·min/mL
- inhibition at 1 µM (CYP2C19): 72.6%
- Activity [34]: Active
- C0 [35]: 4150 ng/mL
- Activity (HeLa [36]): inactive
- IC50 (HeLa [37]): 30 nM
- IC50 (MCF7): 15 nM
- Activity [38]: Active
- inhibition (Tubulin (Homo sapiens)): 86%
- IC50 (cells): 7 nM
- IC50 [39]: 1.8 nM
- AUC(0-inf) [40]: 1470 ng·h/mL
- Activity (RD [41]): Active
